Data published in US7820675B2, “Benzofuran compounds” (Biovitrum AB, priority 2003, dated 2010).
pKi: −log10 of the molar value. Where a name gives a salt, the structure may show the parent alone.

target: T1, human 5-HT6 receptor (Homo sapiens, UniProt P50406); experiment: 5-HT6 binding assay ([3H]-LSD competition, SPA, membranes of transfected HEK293 cells); conditions: competitive binding, [3H]-LSD radioligand, Ki calculated from IC50 (Cheng)
T1 construct: expressed in transfected cells; host or cells: HEK293
T1 sequence (P50406 whole entry): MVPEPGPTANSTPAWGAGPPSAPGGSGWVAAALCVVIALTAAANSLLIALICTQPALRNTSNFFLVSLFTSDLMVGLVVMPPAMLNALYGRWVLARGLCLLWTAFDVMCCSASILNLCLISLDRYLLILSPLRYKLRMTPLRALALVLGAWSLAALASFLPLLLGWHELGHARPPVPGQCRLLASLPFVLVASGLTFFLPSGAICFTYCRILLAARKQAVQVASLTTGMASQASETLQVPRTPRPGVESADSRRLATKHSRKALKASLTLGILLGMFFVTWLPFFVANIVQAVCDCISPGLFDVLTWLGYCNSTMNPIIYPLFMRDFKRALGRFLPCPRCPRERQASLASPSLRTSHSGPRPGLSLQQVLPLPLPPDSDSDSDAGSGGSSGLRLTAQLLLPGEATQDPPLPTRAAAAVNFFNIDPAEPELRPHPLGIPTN

With COc1ccc(C)cc1S(=O)(=O)Nc1cc(O[C@@H]2CCNC[C@H]2F)c2occc2c1 (relative stereo) [Example 85, N-(7-{[trans-3-Fluoropiperidin-4-yl]oxy}-1-benzofuran-5-yl)-2-methoxy-5-methylbenzenesulfonamide hydrochloride] as the compound, how does the pKi read?
The pKi was 8.15.

How did the pKi turn out when O=S(=O)(Nc1cc(O[C@@H]2CCNC[C@H]2F)c2occc2c1)c1cc(F)ccc1Cl (relative stereo) [Example 91, 2-Chloro-5-fluoro-N-(7-{[trans-3-fluoropiperidin-4-yl]oxy}-1-benzofuran-5-yl)benzenesulfonamide hydrochloride] was run?
Its pKi is 7.25.

Cc1cccc(S(=O)(=O)Nc2cc(O[C@@H]3CCNC[C@H]3F)c3occc3c2)c1 (relative stereo) [Example 89, N-(7-{[trans-3-Fluoropiperidin-4-yl]oxy}-1-benzofuran-5-yl)-3-methylbenzenesulfonamide hydrochloride] was tested. Which pKi did it give?
The pKi was 7.85.

COc1ccc(C)cc1S(=O)(=O)Nc1cc(CN2CCNCC2)c2occc2c1 [Example 54, 2-Methoxy-5-methyl-N-[7-(piperazin-1-ylmethyl)-1-benzofuran-5-yl]benzenesulfonamide hydrochloride] was tested. Which pKi did it give?
Its pKi is 7.76.

With COc1ccc(C)cc1NS(=O)(=O)c1cc(CN2CCNC(C)C2)c2occc2c1 (stereo not shown) [Example 92, N-(2-Methoxy-5-methylphenyl)-7-[(3-methylpiperazin-1-yl)methyl]-1-benzofuran-5-sulfonamide hydrochloride] as the compound, how does the pKi read?
Its pKi is 8.25.

How did the pKi turn out when O=S(=O)(Nc1cc(O[C@@H]2CCNC[C@H]2F)c2occc2c1)c1ccccc1C(F)(F)F (relative stereo) [Example 87, N-(7-{[trans-3-Fluoropiperidin-4-yl]oxy}-1-benzofuran-5-yl)-2-(trifluoromethyl)benzenesulfonamide hydrochloride] was run?
The pKi was 8.28.

COc1ccc(C)cc1S(=O)(=O)Nc1cc(O[C@H]2CCNC[C@H]2F)c2occc2c1 (relative stereo) [Example 84, N-(7-{[cis-3-Fluoropiperidin-4-yl]oxy}-1-benzofuran-5-yl)-2-methoxy-5-methylbenzenesulfonamide hydrochloride] was tested. Which pKi did it give?
Its pKi is 8.12.

With CCN1CCC[C@@H]1CNc1cc(NS(=O)(=O)c2ccccc2C(F)(F)F)cc2ccoc12 [Example 67, N-[7-({[(2R)-1-Ethylpyrrolidin-2-yl]methyl}amino)-1-benzofuran-5-yl]-2-(trifluoromethyl)benzenesulfonamide hydrochloride] as the compound, how does the pKi read?
Its pKi is 7.89.

How did the pKi turn out when O=S(=O)(Nc1cc(O[C@H]2CCNC[C@H]2F)c2occc2c1)c1ccccc1C(F)(F)F (relative stereo) [Example 86, N-(7-{[cis-3-Fluoropiperidin-4-yl]oxy}-1-benzofuran-5-yl)-2-(trifluoromethyl)benzenesulfonamide hydrochloride] was run?
The pKi was 8.15.

With O=S(=O)(Nc1cccc2cc(C3=CN4CCC3CC4)oc12)c1ccccc1 [Example 36, N-[2-(1-Azabicyclo[2.2.2]oct-2-en-3-yl)-1-benzofuran-7-yl]benzenesulfonamide hydrochloride] as the compound, how does the pKi read?
The pKi was 7.70.

same assay, conditions: over three experiments

NCCc1c[nH]c2ccc(O)cc12 [Example 5-HT, 5-hydroxytryptamine, reference compound] was tested. Which Hill coefficient did it give?
The Hill coefficient was 0.94 (SD 0.09).

target: T1, human 5-HT6 receptor; experiment: 5-HT6 intrinsic activity assay (inhibition of 5-HT induced increase in cAMP); assay type: cell-based; conditions: read-out: fKi
Method: Briefly, HEK293/5-HT6 cells were seeded in polylysine coated 96-well plates at a density of 25,000/well and grown in DMEM (Dulbecco's Modified Eagle Medium) (without phenol-red) containing 5% dialyzed Foetal Bovine Serum for 48 h at 37° C. in a 5% CO2 incubator. The medium was then aspirated and replaced by 0.1 mL assay medium (Hanks Balance Salt Solution containing 20 mM HEPES, 1.5 mM isobutylmethylxanthine and 1 mg/mL bovine serum albumin). After addition of test substances, 50 μl dissolved in assay medium, the cells were incubated for 10 min at 37° C. in a 5% CO2 incubator. The medium was again aspirated and the cAMP content was determined using a radioactive cAMP kit (Amersham Pharmacia Biotech, BIOTRAK RPA559).
Table 4. Functional in vitro data at the h-5-HT receptor (fKi). Data are expressed as fKi,=IC50/(1+[5HT]/EC50).

O=S(=O)(Nc1cc(-c2cncnc2)c2occc2c1)c1ccccc1 [Example 32, N-(7-Pyrimidin-5-yl-1-benzofuran-5-yl)benzenesulfonamide hydrochloride] was tested. Which pKi did it give?
Its pKi is 7.27.

Fc1ccc(CNc2cc(N3CCNCC3)c3occc3c2)cc1F [Example 12, N-(3,4-Difluorobenzyl)-7-piperazin-1-yl-1-benzofuran-5-amine hydrochloride] was tested. Which pKi did it give?
The pKi was 7.06.

How did the pKi turn out when COc1ccc(C)cc1S(=O)(=O)Nc1cc(-c2ccncc2)c2occc2c1 [Example 28, 2-Methoxy-5-methyl-N-(7-pyridin-4-yl-1-benzofuran-5-yl)benzenesulfonamide] was run?
Its pKi is 7.18.

With COc1ccc(C)cc1S(=O)(=O)Nc1cc(C2=CN3CCC2CC3)c2occc2c1 [Example 33, N-[7-(1-Aza-bicyclo[2.2.2]oct-2-en-3-yl)-benzofuran-5-yl]-2-methoxy-5-methylbenzenesulfonamide hydrochloride] as the compound, how does the pKi read?
The pKi was 7.70.

CNCCCN(C)c1cc(NS(=O)(=O)c2ccccc2)cc2ccoc12 [Example 1, N-(7-{Methyl[3-(methylamino)propyl]amino}-1-benzofuran-5-yl)benzenesulfonamide hydrochloride] was tested. Which pKi did it give?
Its pKi is 7.06.
